Measurements: patent US20250186600A1, “EXCIPIENT COMPOUNDS FOR PROTEIN FORMULATIONS” (Comera Life Sciences, Inc., priority 2020, published 2025)
Several values for one entry are separate records, joined by “and”; a condition that tells them apart may be missing. Equal values may be shown once. Where a name gives a salt, the structure may show the parent alone.

How the values were obtained:
infliximab = assay: Thermal degradation assay at 55° C., normalized monomer loss rate by HP-SEC (Example 51); format: physicochemical; settings: infliximab about 2 mg/mL, 20 mM phosphate pH 7, 55° C.
Method: ® infliximab was obtained from the Clinigen Group and reconstituted according to the instructions in the Janssen package insert, resulting in a 10 mg/mL infliximab solution in 5 mM phosphate buffer, pH about 7, with 50 mg/mL sucrose and 0.05 mg/mL polysorbate 80. The reconstituted drug product was then combined 1:1 by volume with 50 mM sodium acetate buffer at pH 5. The resulting solution was then injected onto a small preparative scale cation exchange column (GE Healthcare, Chicago, IL). After the infliximab was loaded onto the column, the column was washed with 10 column volumes of 50 mM sodium acetate buffer, pH 5. The infliximab was then eluted from the column with five column volumes of a 250 mM sodium chloride, 50 mM sodium acetate buffer at pH 5. […] Stock solutions of either 4 or 8 mg/mL infliximab in 20 mM phosphate buffer at pH 7 were then used in subsequent tests.
All excipients used in this Example, listed in Table 52 below, were of the highest purity, and were obtained from Sigma Aldrich (St. Louis, MO) or Cayman Chemical (Ann Arbor, MI). The stock infliximab solutions were mixed with stock excipient solutions containing the excipients listed in Table 52 formulated in 20 mM phosphate buffer, pH 7 to achieve a final infliximab concentration of about 2 mg/mL in each sample. The samples containing the infliximab solutions and the stock excipient solutions were then aliquoted into five 100 μL aliquots in PCR tubes. […] These stressed samples were then analyzed for monomer content by high performance size exclusion chromatography (HP-SEC) using an Agilent 1100 series HPLC equipped with a diode array detector monitoring absorbance at 280 nm. […] For each sample, the monomer peak area was divided by the monomer peak area obtained from an identical but unstressed sample to obtain the percent monomer remaining after exposure to thermal stress. The remaining monomer as a percentage of the unstressed sample was then plotted as a function of incubation time and the absolute value of the slope of a linear fit to the data was recorded as the monomer loss rate.

ustekinumab [1] = assay: Urea denaturation, Sypro orange fluorescence (Example 44); format: physicochemical; settings: excipient 5 mg/mL, ustekinumab 1 mg/mL, 6M urea, 20 mM histidine pH 6.0, Sypro orange fluorescence
From the text: It is known that urea denatures proteins in solution and causes them to unfold. The screening methodology in this example involved adding a specific concentration of urea to a therapeutic protein solution such as ustekinumab. […] One method to track protein unfolding involves the use of extrinsic fluorescent dyes such as Sypro orange. Sypro orange binds to hydrophobic regions in the unfolded protein structure, leading to an increase in the fluorescence signal observed. Measuring the differences in the fluorescence intensity of unfolded protein-Sypro orange complex in presence of different excipients thus allows one to identify any stabilizing effects.
All excipients used in this Example, listed in Table 45 below, were of the highest purity, and were obtained from Sigma Aldrich (St. Louis, MO) or Cayman Chemical (Ann Arbor, MI). […] This urea stock solution was then added to a final concentration of 6M to produce the test solutions (excipient plus protein plus urea). […] The pH of the mixture was rechecked and confirmed to be at pH 6.0. The test solutions were allowed to incubate at room temperature for 30 min.

ustekinumab [2] = assay: Stabilization at low pH, Sypro orange fluorescence (Example 45); settings: excipient 5 mg/mL, ustekinumab 1 mg/mL, glycine acidification buffer pH 2.6, Sypro orange fluorescence
omalizumab = assay: DLS viscosity of concentrated omalizumab (Example 53); format: physicochemical; parameters: key to DLS Viscosity, Replicate 1: observation on combining excipient with protein / DLS Viscosity, Replicate 2: observation on combining excipient with protein: * Combination of excipient with protein resulted in reversible precipitation; settings: 20 mM HisHCl pH 6; for DLS Viscosity, Replicate 1 / DLS Viscosity, Replicate 2: concentrated omalizumab 9 parts : 1 part excipient stock (1 M or solubility limit)
Method: O-(octylphosphoryl)choline was purchased from Sigma Aldrich (St. […] O-(octylphosphoryl)choline was used as a stock excipient without additional preparation. […] In this example, the ratio of apparent radius to the actual radius of the gold nanoparticle was multiplied by the viscosity of water at 25° C. to calculate the viscosity of the protein formulation in centipoise (cP).

[3] = Caffeine solubility with co-solutes during refrigerated storage (Example 61); format: physicochemical; parameters: key: (PPT)—precipitate observed; (—)—clear solution observed; settings: 50 mM co-solute, 25 mM histidine pH 6, stored 2 to 5° C.
Method: The resulting microplates were then sealed with microplate tape and stored in a refrigerator with the temperature maintained in the range of 2 to 5° C. Over the course of storage, the microplates were visually observed for evidence of precipitate in the well.

[4] = concentrated omalizumab 9 parts : 1 part excipient stock

Compound: Cl.N=C(N)NCCC[C@H](N)C(=O)O [Arg HCl]
- Monomer loss rate (infliximab; excipient 125 mM): 0.1186 % mon/min
- Normalized monomer loss rate (infliximab; excipient 125 mM): 0.740

Compound: O[C@H]1[C@H](O)[C@@H](O)CN2CC[C@H](O)[C@H]12 [Castanospermine]
- % increased stability (ustekinumab [1]): 7.0%
- % change in stability (ustekinumab [2]): 95.9%

Compound: NCCSSCCN [Cystamine]
- % increased stability (ustekinumab [1]): 8.8%
- % change in stability (ustekinumab [2]): 17.8%

Compound: CCN(CC)CCOC(=O)C1(C2CCCCC2)CCCCC1 [Dicyclomine HCl]
- DLS Viscosity, Replicate 1: observation on combining excipient with protein (omalizumab; [4]): *
- DLS Viscosity, Replicate 2: observation on combining excipient with protein (omalizumab; [4]): *

Compound: CC(O)(P(=O)(O)O)P(=O)(O)O [Etidronate]
- Monomer loss rate (infliximab; excipient 25 mM): 0.0824 % mon/min
- Normalized monomer loss rate (infliximab; excipient 25 mM): 0.514
- Monomer loss rate (infliximab; excipient 50 mM): 0.0685 % mon/min
- Normalized monomer loss rate (infliximab; excipient 50 mM): 0.428
- Monomer loss rate (infliximab; excipient 100 mM): 0.0321 % mon/min and 0.0284 % mon/min
- Normalized monomer loss rate (infliximab; excipient 100 mM): 0.200 and 0.177

Compound: O=S(=O)(O)CCN1CCN(CCO)CC1 [HEPES]
- DLS Viscosity, Replicate 1 (omalizumab): 15.9 cP
- DLS Viscosity, Replicate 2 (omalizumab): 17.4 cP

Compound: [Cl-].[Na+] [NaCl]
- Monomer loss rate (infliximab; excipient 150 mM): 0.0727 % mon/min
- Normalized monomer loss rate (infliximab; excipient 150 mM): 0.454

Compound: NC[C@H]1O[C@H](O[C@H]2[C@H](O)[C@@H](O)[C@H](N)C[C@@H]2N)[C@H](N)[C@@H](O)[C@@H]1O [Neamine]
- % increased stability (ustekinumab [1]): 2.8%
- % change in stability (ustekinumab [2]): 5.9%

Compound: NC(=O)c1cccnc1 [Nicotinamide]
- % increased stability (ustekinumab [1]): 2.7%
- Day 1 (visual observation for precipitate) ([3]; caffeine 7.5 mg/mL): —
- Day 7 (visual observation for precipitate) ([3]; caffeine 7.5 mg/mL): —
- Day 18 (visual observation for precipitate) ([3]; caffeine 7.5 mg/mL): —
- Day 27 (visual observation for precipitate) ([3]; caffeine 7.5 mg/mL): —
- Day 56 (visual observation for precipitate) ([3]; caffeine 7.5 mg/mL): —
- Day 1 (visual observation for precipitate) ([3]; caffeine 10 mg/mL): —
- Day 7 (visual observation for precipitate) ([3]; caffeine 10 mg/mL): —
- Day 18 (visual observation for precipitate) ([3]; caffeine 10 mg/mL): —
- Day 27 (visual observation for precipitate) ([3]; caffeine 10 mg/mL): —
- Day 56 (visual observation for precipitate) ([3]; caffeine 10 mg/mL): —
- Day 1 (visual observation for precipitate) ([3]; caffeine 12.5 mg/mL): —
- Day 7 (visual observation for precipitate) ([3]; caffeine 12.5 mg/mL): —
- Day 18 (visual observation for precipitate) ([3]; caffeine 12.5 mg/mL): —
- Day 27 (visual observation for precipitate) ([3]; caffeine 12.5 mg/mL): —
- Day 56 (visual observation for precipitate) ([3]; caffeine 12.5 mg/mL): —
- Day 1 (visual observation for precipitate) ([3]; caffeine 15 mg/mL): —
- Day 7 (visual observation for precipitate) ([3]; caffeine 15 mg/mL): —
- Day 18 (visual observation for precipitate) ([3]; caffeine 15 mg/mL): —
- Day 27 (visual observation for precipitate) ([3]; caffeine 15 mg/mL): —
- Day 56 (visual observation for precipitate) ([3]; caffeine 15 mg/mL): PPT
- Day 1 (visual observation for precipitate) ([3]; caffeine 20 mg/mL): —
- Day 7 (visual observation for precipitate) ([3]; caffeine 20 mg/mL): —
- Day 18 (visual observation for precipitate) ([3]; caffeine 20 mg/mL): PPT
- Day 27 (visual observation for precipitate) ([3]; caffeine 20 mg/mL): PPT
- Day 56 (visual observation for precipitate) ([3]; caffeine 20 mg/mL): PPT

Compound: CCCCCCCCOP(=O)([O-])OCC[N+](C)(C)C [O-(octylphosphoryl)choline]
- DLS Viscosity, Replicate 1 (omalizumab): 35.6 cP
- DLS Viscosity, Replicate 2 (omalizumab): 35.4 cP

Compound: OC(CCN1CCCCC1)(c1ccccc1)c1ccccc1 [Pridinol Methanesulfonate]
- DLS Viscosity, Replicate 1 (omalizumab): 45.5 cP
- DLS Viscosity, Replicate 2 (omalizumab): 36.2 cP

Compound: OC[C@@H](O)[C@@H](O)[C@H](O)[C@@H](O)CO [Sorbitol]
- Monomer loss rate (infliximab; excipient 200 mM): 0.0656 % mon/min
- Normalized monomer loss rate (infliximab; excipient 200 mM): 0.409

Compound: NCCCCNCCCN [Spermidine]
- % increased stability (ustekinumab [1]): 12.9%
- % change in stability (ustekinumab [2]): 98.1%

Compound: NCCCNCCCCNCCCN [Spermine]
- % increased stability (ustekinumab [1]): 16.8%
- % change in stability (ustekinumab [2]): 90.0%

Compound: CCNC(=O)CC[C@H](N)C(=O)O [Theanine]
- % increased stability (ustekinumab [1]): 6.1%
- % change in stability (ustekinumab [2]): 8.3%

Compound: Nc1ccc(C(=O)O)cc1 [p-aminobenzoic acid]
- % increased stability (ustekinumab [1]): 2.7%
